According to US20150080468A1, “COMPOSITION AND METHOD FOR PROCESSING AND DELIVERING BIOAVAILABLE METHIONINE ANALOGS, DERIVATIVES, AND PRECURSORS, THEREOF” (QUALITY LIQUID FEEDS, priority 2013, published 2015):
In brackets after ≈: the same amount, converted by molar mass. Several values for one entry are separate records, joined by “and”; a condition that tells them apart may be missing. Equal values may be shown once.

Legend:
[1] = cited from earlier work
[2] = Sub-zero freezing and thawing of 3×, 4× and 100% HMBi after the 56 day study; format: physicochemical
Description: Each bar represents a data collection day: 1, 7, 14, 21, 29, 35, 42, 50, and 56 days. […] Mixing or re-circulation every other day will also maintain positional and product stability plus decrease product viscosity. Additionally, lower temperatures were tried for the 3× and 4× plus the HMBi straight or 100% additive after the 56 day study. […] However, the 100% HMBi was frozen solid. The liquid 100% HMBi freezes or solidifies at temperatures below 54° F. or 12° C. when the HMBi liquid is acted upon by an outside force such as mixing or pumping. This “Superfusion” property of the liquid 100% HMBi requires expensive heated storage equipment and plumbing to allow for use in a feed mill environment. After 72 hours in a deep freeze, the 3× and 4× also froze solid.

[3] = dairy cows; cited from earlier work
[4] = Freeze/thaw study: viscosity, flowability and superfusion (Example 2); format: physicochemical
Description: A range of inclusion rates of the HMBi was used in the second example to further investigate the reduction or retardation of the superfusion property of the methionine analog (HMBi) added to a simple feed mill blend molasses liquid product.
Eight formulations were evaluated in regards to product positional stability, product pH, temperature, viscosity as affected by temperature and time. Viscosity measurements were being used to determine flow ability thus whether or not the product can be pumped without external heating. If HMBi is stored in conditions where its temperature drops below 54° F. (12.2° C.), it will solidify or undergo superfusion which will not allow it to be pumped. As you can see in FIG. 6, the HMBi is solid and will remain solid for several hours while thawing. During the thawing process, the HMBi will liquefy with a solid ball surrounded by liquid. This solid ball could potentially plug the inside fixture of a tank not allowing for flow to the pump. During the Example E2 study, it took about eight days of the 100% HMBi in sub-zero temperatures before it underwent superfusion. The container in FIG. 6 had to be shaken quite vigorously to get the HMBi to solidify. It was not moved until the late afternoon of day 7. By the morning of day 8, it was solid.
The containers used were clear PET plastic one quart capacity with wide mouth openings. All samples were placed in a sub-zero freezer until the samples were solid. As stated above, it took eight days for the 100% HMBi to undergo the superfusion process, thus all eight samples were frozen solid at about −9° F. (−22.8° C.) which is exactly what was needed for Example E2.
Once all samples were frozen, they were moved to a force-draft fume hood to allow warm air to be drawn over the jars to hasten thawing. When the samples were soft enough to get a metal tipped thermometer into the samples, temperatures were taken and recorded. Viscosity was measured once the samples thawed enough; temperatures were also taken at that time. The process of freezing and thawing was repeated once. These samples were not stirred or shaken except for the 100% HMBi sample to get it to undergo superfusion.
All formulated samples were mixed by the procedures and using the equipment described in Example E1. The same temperature probe, viscometer, and pH meter were also used.
Observations and data were collected when the samples had thawed enough to allow for viscosity and temperature measurements. The freezing and thawing was repeated once to confirm results. Laboratory room temperature was between 68 to 70° F. Any product having a viscosity over 5,000 cPs using a spindle sO5 will not flow nor be pumpable without added heat.

- Flowability / state ([2]; less than 0° F. or -17.8° C. for 24 hours): frozen solid
- Further time until return to a liquid state ([2]; thawing after deep freeze): about 12 hours
- Temperature at return to a liquid state ([2]; thawing after deep freeze): approximately 56 ° F.
- Viscosity ([4]; Dec. 31, 2009, initial, 77.3-79.6 °F, spindle sO1/sO2): 37 cPs
- Viscosity ([4]; Jan. 1, 2010, in freezer, -1.0 to 1.3 °F, spindle sO6 (100%: sO1)): 174 cPs and 173.6 cPs
- Viscosity ([4]; Jan. 2, 2010, in freezer, -3.9 to -0.2 °F, spindle sO6 (100%: sO1)): 157.6 cPs
- Physical state (no viscosity reading) ([4]; Jan. 14, 2010, 2:59-3:34 PM, thawing): solid
- Physical state (no viscosity reading) ([4]; Jan. 14, 2010, 2:59-3:34 PM, thawing, listed as 100%): SOLID
- Physical state (no viscosity reading) ([4]; Jan. 14, 2010, 3:50-4:15 PM, thawing): still solid
- Physical state (no viscosity reading) ([4]; Jan. 14, 2010, 3:50-4:15 PM, thawing, listed as 100%): SOLID
- Physical state (no viscosity reading) ([4]; Jan. 14, 2010, 4:40-5:10 PM, thawing, 47.7 °F): semi-solid
- Physical state (no viscosity reading) ([4]; Jan. 14, 2010, 4:40-5:10 PM, thawing, 47.7 °F, listed as 100%): SEMI-SOLID
- Physical state (no viscosity reading) ([4]; Jan. 15, 2010, 4:19-4:51 PM, second thaw, 45.0 °F): semi-solid
- Physical state (no viscosity reading) ([4]; Jan. 15, 2010, 4:19-4:51 PM, second thaw, 45.0 °F, listed as 100%): SEMI-SOLID
- Physical state (no viscosity reading) ([4]; Jan. 15, 2010, 10:55-11:20 AM, second freeze): solid
- Physical state (no viscosity reading) ([4]; Jan. 15, 2010, 10:55-11:20 AM, second freeze, listed as 100%): SOLID
- Physical state (no viscosity reading) ([4]; Jan. 15, 2010, 12:05-12:27, second thaw): semi-solid
- Physical state (no viscosity reading) ([4]; Jan. 15, 2010, 12:05-12:27, second thaw, listed as 100%): SOLID
- Time in sub-zero temperatures before superfusion ([4]; sub-zero freezer, shaken on day 7): about eight
Structure (SMILES): CSCCC(O)C(=O)OC(C)C (stereo not shown) [100% HMBi, isopropyl ester of 2-hydroxy-4-methylthiobutanoic acid]
- Viscosity at 20° C. ([1]; 20 °C): 19.2 mPa/s
- Crystallization (solidification, superfusion) temperature ([1]; ambient pressure): below 54 ° F.
- pH ([1]; in a 1% aqueous solution): 3.6
- Solubility ([1]; water at 30° C.): 25.1 g/L (≈ 131 mM)
- metabolizable methionine provided [3]: 370 g/kg
- rumen available HMB provided [3]: 370 g/kg
